Measured values reported in patent US20120294879A1, “CONSENSUS SEQUENCE FOR INFLUENZA A VIRUS” (priority 2009, published 2012).

Columns and labels:
[1] = system: HLA-A2, -A24, -B7, -DR2, -DR3 and -DR4 transgenic mice; type: cell-based; set-up: key to HLA allele this work (HLA restriction by ELISpot): —represents no positive ELISpot response
[2] = system: splenocytes of HLA-DR4 (DRB1*0401) transgenic mice; type: cell-based; set-up: key: — represents no positive ELISpot response
[3] = system: splenocytes of HLA-B7 (B*0702) transgenic mice; type: cell-based; set-up: key to B7: average IFN-γ spots forming cells per million splenocytes: — represents no positive ELISpot response
[4] = system: splenocytes of HLA-DR2 (DRB1*1501) transgenic mice; type: cell-based; set-up: key to DR2: average IFN-γ spots forming cells per million splenocytes: — represents no positive ELISpot response
[5] = system: splenocytes of HLA-A24 (A*2402) transgenic mice; type: cell-based; set-up: key to A24: average IFN-γ spots forming cells per million splenocytes: — represents no positive ELISpot response
[6] = system: splenocytes of HLA-DR3 (DRB1*0301) transgenic mice; type: cell-based; set-up: key to DR3: average IFN-γ spots forming cells per million splenocytes: — represents no positive ELISpot response
[7] = target: HLA-DR3 (HLA-DRA*0101 and -DRB1*0301), as expressed in HLA-DR3 transgenic mice (human); test: cell-based or functional assay
[8] = target: HLA-DR4 (HLA-DRA*0101 and -DRB1*0401), as expressed in HLA-DR4 transgenic mice (human); test: cell-based or functional assay
HLA alleles = settings: epitopes extracted from the IEDB, humans infected with influenza A; cited from earlier work

## AGALASCMGLIYNRMGA
[1]
  HLA allele this work (HLA restriction by ELISpot): —

## FVANFSMELPSFGVSGV
[1]
  HLA allele this work (HLA restriction by ELISpot): —

## GKGYMFESKSMKLRTQI
[2]
  DR4: average IFN-γ spots forming cells per million splenocytes: —
[3]
  B7: average IFN-γ spots forming cells per million splenocytes: —
[4]
  DR2: average IFN-γ spots forming cells per million splenocytes: 52 ± 2(1) IFN-γ spots forming cells per million splenocytes
  DR2: lowest concentration of peptide giving positive ELISpot response in peptide titration: 52 ± 2(1) μg/ml
[5]
  A24: average IFN-γ spots forming cells per million splenocytes: —
[1]
  HLA allele this work (HLA restriction by ELISpot): DR2
[6]
  DR3: average IFN-γ spots forming cells per million splenocytes: —

## GYTMDTVNRTHQYSERG
[2]
  DR4: average IFN-γ spots forming cells per million splenocytes: 125 ± 11(0.1) IFN-γ spots forming cells per million splenocytes
[3]
  B7: average IFN-γ spots forming cells per million splenocytes: —
[4]
  DR2: average IFN-γ spots forming cells per million splenocytes: —
[5]
  A24: average IFN-γ spots forming cells per million splenocytes: —
[1]
  HLA allele this work (HLA restriction by ELISpot): DR4
[6]
  DR3: average IFN-γ spots forming cells per million splenocytes: —

## KTGGPIYKRVDGKWVRE
[1]
  HLA allele this work (HLA restriction by ELISpot): DR3

## KWMMAMKYPITADKRIT
[2]
  DR4: average IFN-γ spots forming cells per million splenocytes: 161 ± 18(0.1) IFN-γ spots forming cells per million splenocytes
[3]
  B7: average IFN-γ spots forming cells per million splenocytes: —
[4]
  DR2: average IFN-γ spots forming cells per million splenocytes: —
[5]
  A24: average IFN-γ spots forming cells per million splenocytes: —
[1]
  HLA allele this work (HLA restriction by ELISpot): DR4
[6]
  DR3: average IFN-γ spots forming cells per million splenocytes: —

## LEVCFMYSDFHFINEQG
[2]
  DR4: average IFN-γ spots forming cells per million splenocytes: —
[3]
  B7: average IFN-γ spots forming cells per million splenocytes: —
[4]
  DR2: average IFN-γ spots forming cells per million splenocytes: 64 ± 11(1) IFN-γ spots forming cells per million splenocytes
  DR2: lowest concentration of peptide giving positive ELISpot response in peptide titration: 64 ± 11(1) μg/ml
[5]
  A24: average IFN-γ spots forming cells per million splenocytes: —
[1]
  HLA allele this work (HLA restriction by ELISpot): DR2
[6]
  DR3: average IFN-γ spots forming cells per million splenocytes: —

## LTIERMVLSAFDERRNK
[1]
  HLA allele this work (HLA restriction by ELISpot): —

## MDVNPTLLFLKVPAQNA
[1]
  HLA allele this work (HLA restriction by ELISpot): —

## MSLLTEVETYVLSIVPS
[1]
  HLA allele this work (HLA restriction by ELISpot): —

## NKMARLGKGYMFESKSM
[1]
  HLA allele this work (HLA restriction by ELISpot): —

## NP 408-424 peptide of influenza virus A/New York/348/2003 (H1N1)
[7]
  IFN-γ ELISpot at 10 µg/ml peptide, splenocytes of immunized HLA transgenic mice: 41
  lowest concentration of peptide giving positive ELISpot response: 10 µg/mL

## NQPEWFRNILSIAPIMF
[2]
  DR4: average IFN-γ spots forming cells per million splenocytes: —
[3]
  B7: average IFN-γ spots forming cells per million splenocytes: 60 ± 8 IFN-γ spots forming cells per million splenocytes
  B7: lowest concentration of peptide giving positive ELISpot response in peptide titration: (10) μg/ml
[4]
  DR2: average IFN-γ spots forming cells per million splenocytes: —
[5]
  A24: average IFN-γ spots forming cells per million splenocytes: —
[1]
  lowest peptide concentration giving positive IFN-γ ELISpot response (apparent functional avidity): solely at the highest peptide concentration
[6]
  DR3: average IFN-γ spots forming cells per million splenocytes: —

## NTYQWIIRNWETVKIQW
[2]
  DR4: average IFN-γ spots forming cells per million splenocytes: —
[3]
  B7: average IFN-γ spots forming cells per million splenocytes: —
[4]
  DR2: average IFN-γ spots forming cells per million splenocytes: 96 ± 9(0.1) IFN-γ spots forming cells per million splenocytes
  DR2: lowest concentration of peptide giving positive ELISpot response in peptide titration: 96 ± 9(0.1) μg/ml
[5]
  A24: average IFN-γ spots forming cells per million splenocytes: 322 ± 44 IFN-γ spots forming cells per million splenocytes
  A24: lowest concentration of peptide giving positive ELISpot response in peptide titration: (0.1) μg/ml
[1]
  HLA allele this work (HLA restriction by ELISpot): both HLA class I and II alleles
[6]
  DR3: average IFN-γ spots forming cells per million splenocytes: —

## PB1 120-136 peptide of influenza virus A/New York/348/2003 (H1N1)
[7]
  IFN-γ ELISpot at 10 µg/ml peptide, splenocytes of immunized HLA transgenic mice: 142
  lowest concentration of peptide giving positive ELISpot response: 0.1 µg/mL

## PB1 126-142 peptide of influenza virus A/New York/348/2003 (H1N1)
[7]
  IFN-γ ELISpot at 10 µg/ml peptide, splenocytes of immunized HLA transgenic mice: 78
  lowest concentration of peptide giving positive ELISpot response: 0.1 µg/mL

## PB1 340-356 peptide of influenza virus A/New York/348/2003 (H1N1)
[7]
  IFN-γ ELISpot at 10 µg/ml peptide, splenocytes of immunized HLA transgenic mice: 175
  lowest concentration of peptide giving positive ELISpot response: 0.1 µg/mL

## PB1 471-487 peptide of influenza virus A/New York/348/2003 (H1N1)
[7]
  IFN-γ ELISpot at 10 µg/ml peptide, splenocytes of immunized HLA transgenic mice: 116
  lowest concentration of peptide giving positive ELISpot response: 0.1 µg/mL

## PB1 554-570 peptide of influenza virus A/New York/348/2003 (H1N1)
[8]
  IFN-γ ELISpot at 10 µg/ml peptide, splenocytes of immunized HLA transgenic mice: 76
  lowest concentration of peptide giving positive ELISpot response: 0.1 µg/mL
[7]
  IFN-γ ELISpot at 10 µg/ml peptide, splenocytes of immunized HLA transgenic mice: 166
  lowest concentration of peptide giving positive ELISpot response: 0.1 µg/mL

## PB1 650-666 peptide of influenza virus A/New York/348/2003 (H1N1)
[8]
  IFN-γ ELISpot at 10 µg/ml peptide, splenocytes of immunized HLA transgenic mice: 41
  lowest concentration of peptide giving positive ELISpot response: 0.1 µg/mL
[7]
  IFN-γ ELISpot at 10 µg/ml peptide, splenocytes of immunized HLA transgenic mice: 142
  lowest concentration of peptide giving positive ELISpot response: 0.1 µg/mL

## PB1 680-696 peptide of influenza virus A/New York/348/2003 (H1N1)
[7]
  IFN-γ ELISpot at 10 µg/ml peptide, splenocytes of immunized HLA transgenic mice: 181

## PB2 54-70 peptide of influenza virus A/New York/348/2003 (H1N1)
[7]
  IFN-γ ELISpot at 10 µg/ml peptide, splenocytes of immunized HLA transgenic mice: 499
  lowest concentration of peptide giving positive ELISpot response: 0.1 µg/mL

## PB2 256-272 peptide of influenza virus A/New York/348/2003 (H1N1)
[7]
  IFN-γ ELISpot at 10 µg/ml peptide, splenocytes of immunized HLA transgenic mice: 169
  lowest concentration of peptide giving positive ELISpot response: 0.1 µg/mL

## PB2 434-450 peptide of influenza virus A/New York/348/2003 (H1N1)
[7]
  IFN-γ ELISpot at 10 µg/ml peptide, splenocytes of immunized HLA transgenic mice: 444
  lowest concentration of peptide giving positive ELISpot response: 0.1 µg/mL

## PB2 464-480 peptide of influenza virus A/New York/348/2003 (H1N1)
[7]
  IFN-γ ELISpot at 10 µg/ml peptide, splenocytes of immunized HLA transgenic mice: 324
  lowest concentration of peptide giving positive ELISpot response: 0.1 µg/mL

## RCHRGDTQIQTRRSFEI
[2]
  DR4: average IFN-γ spots forming cells per million splenocytes: —
[3]
  B7: average IFN-γ spots forming cells per million splenocytes: —
[4]
  DR2: average IFN-γ spots forming cells per million splenocytes: 194 ± 47(0.1) IFN-γ spots forming cells per million splenocytes
  DR2: lowest concentration of peptide giving positive ELISpot response in peptide titration: 194 ± 47(0.1) μg/ml
[5]
  A24: average IFN-γ spots forming cells per million splenocytes: —
[1]
  HLA allele this work (HLA restriction by ELISpot): DR2
[6]
  DR3: average IFN-γ spots forming cells per million splenocytes: —

## RGILEDEQMYQRCCNLF
[2]
  DR4: average IFN-γ spots forming cells per million splenocytes: —
[3]
  B7: average IFN-γ spots forming cells per million splenocytes: —
[4]
  DR2: average IFN-γ spots forming cells per million splenocytes: —
[5]
  A24: average IFN-γ spots forming cells per million splenocytes: 78 ± 4 IFN-γ spots forming cells per million splenocytes
  A24: lowest concentration of peptide giving positive ELISpot response in peptide titration: (0.1) μg/ml
[1]
  HLA allele this work (HLA restriction by ELISpot): both HLA class I and II alleles
[6]
  DR3: average IFN-γ spots forming cells per million splenocytes: 181 ± 10(0.1) IFN-γ spots forming cells per million splenocytes
  DR3: lowest concentration of peptide giving positive ELISpot response in peptide titration: 181 ± 10(0.1) μg/ml

## RMVLASTTAK [reference compound]
HLA alleles
  Published HLA alleles (reported human T cell epitopes): HLA-A3 and -A11

## TQIQTRRSFEIKKLWDQ
[1]
  HLA allele this work (HLA restriction by ELISpot): —

## TQPTFSVQRNLPFDKTT
[2]
  DR4: average IFN-γ spots forming cells per million splenocytes: —
[3]
  B7: average IFN-γ spots forming cells per million splenocytes: —
[4]
  DR2: average IFN-γ spots forming cells per million splenocytes: 110 ± 14(1) IFN-γ spots forming cells per million splenocytes
  DR2: lowest concentration of peptide giving positive ELISpot response in peptide titration: 110 ± 14(1) μg/ml
[5]
  A24: average IFN-γ spots forming cells per million splenocytes: —
[1]
  lowest peptide concentration giving positive IFN-γ ELISpot response (apparent functional avidity): solely at the highest peptide concentration
[6]
  DR3: average IFN-γ spots forming cells per million splenocytes: 41 ± 2(10) IFN-γ spots forming cells per million splenocytes
  DR3: lowest concentration of peptide giving positive ELISpot response in peptide titration: 41 ± 2(10) μg/ml

## VLSAFDERRNKYLEEHP
HLA alleles
  Published HLA alleles (reported human T cell epitopes): DRB1*0101
[1]
  HLA allele this work (HLA restriction by ELISpot): —
